Assay results published in patent US10280166B2, “2-(1H-indazol-3-yl)-3H-imidazo[4,5-B]pyridine and therapeutic uses thereof” (Samumed, LLC, priority 2014, dated 2019).

Tests used:
[1] = tested on: primary human fibroblasts derived from IPF patients (LL29 cells); assay: Inhibition of fibrosis (αSMA) in TGF-β1 treated primary human fibroblasts from IPF patients; type: cell-based; conditions: Fibroblast, 96 h, TGF-β1 20 ng/mL, 4 days, % αSMA positive cells
Excerpt: The above synthesized compounds were screened using primary human fibroblasts (derived from IPF patients) treated with TGF-β1 to determine their ability to inhibit the fibrotic process.
Primary human fibroblasts derived from IPF patients (LL29 cells) [^1Xiaoqiu Liu, et.al., “Fibrotic Lung Fibroblasts Show Blunted Inhibition by cAMP Due to Deficient cAMP Response Element-Binding Protein Phosphorylation”, Journal of Pharmacology and Experimental Therapeutics (2005), 315(2), 678-687; ^2Watts, K. L., et.al., “RhoA signaling modulates cyclin D1 expression in human lung fibroblasts; implications for idiopathic pulmonary fibrosis”, Respiratory Research (2006), 7(1), 88] were obtained from American Type Culture Collection (ATCC) and expanded in F12 medium supplemented with 15% Fetal Bovine Serum and Penicillin/Streptomycin.
Each compound was dissolved in DMSO as a 10 mM stock and used to prepare compound source plates. Serial dilution (1:2, 11-point dose-response curves from 10 μM to 1.87 nM) and compound transfer was performed using the ECHO 550 (Labcyte, Sunnyvale, Calif.) into 384-well clear bottom assay plates (Greiner Bio-One) with appropriate DMSO backfill for a final DMSO concentration of 0.1%. LL29 cells were plated at 1,500 cells/well in 80 μl/well F12 medium supplemented with 1% Fetal Bovine Serum. One hour after addition of the cells, TGF-β1 (Peprotech; 20 ng/mL) was added to the plates to induce fibrosis (ref. 1 and 2 above). Wells treated with TGF-β1 and containing DMSO were used as controls. Cells were incubated at 37° C. and 5% CO2 for 4 days. Following incubation for 4 days, SYTOX green nucleic acid stain (Life Technologies [Thermo Fisher Scientific]) was added to the wells at a final concentration of 1 uM and incubated at room temperature for 30 min. Cells were then fixed using 4% formaldehyde (Electron Microscopy Sciences), washed 3 times with PBS followed by blocking and permeabilization using 3% Bovine Serum Albumin (BSA; Sigma) and 0.3% Triton X-100 (Sigma) in PBS. Cells were then stained with antibody specific to α-smooth muscle actin (αSMA; Abcam) (ref. 1 and 2 above) in 3% Bovine Serum Albumin (BSA; Sigma) and 0.3% Triton X-100 (Sigma) in PBS, and incubated overnight at 4° C. Cells were then washed 3 times with PBS, followed by incubation with Alexa Flor-647 conjugated secondary antibody (Life Technologies [Thermo Fisher Scientific]) and DAPI at room temperature for 1 hour. Cells were then washed 3 times with PBS and plates were sealed for imaging. αSMA staining was imaged by excitation at 630 nm and emission at 665 nm and quantified using the Compartmental Analysis program on the CellInsight CX5 (Thermo Scientific). Dead or apoptotic cells were excluded from analysis based on positive SYTOX green staining. % of total cells positive for αSMA were counted in each well and normalized to the average of 11 wells treated with TGF-β1 on the same plate using Dotmatics' Studies Software. The normalized averages (fold change over untreated) of 3 replicate wells for each compound concentration were used to create dose-responses curves and EC50 values were calculated using non-linear regression curve fit in the Dotmatics' Studies Software. The EC50 values are reported.

[2] = tested on: Wnt activity (SW480 colon carcinoma cells stably expressing the Sp5-Luc reporter gene); assay: Sp5-Luc reporter gene screening assay for Wnt activity in SW480 cells; type: cell-based; conditions: Homo sapiens, 42 h incubation, luminescence
Excerpt: The screening assay for Wnt activity is described as follows. Reporter cell lines can be generated by stably transducing cancer cell lines (e.g., colon cancer) or primary cells (e.g., IEC-6 intestinal cells) with a lentiviral construct that includes a Wnt-responsive promoter driving expression of the firefly luciferase gene.
SW480 colon carcinoma cells were transduced with a lentiviral vector expressing luciferase with a human Sp5 promoter consisting of a sequence of eight TCF/LEF binding sites. SW480 cells stably expressing the Sp5-Luc reporter gene and a hygromycin resistance gene were selected by treatment with 150 μg/ml of hygromycin for 7 days. These stably transduced SW480 cells were expanded in cell culture and used for all further screening activities. For Sp5-Luc reporter gene assays, the cells were plated at 10,000 cells/well in 96-well plates with growth medium containing 10% fetal calf serum and incubated overnight at 37° C. and 5% CO2. Each compound was dissolved in DMSO as a 10 mM stock in standard j-vials and used to prepare compound source plates in dose-response format with 3-fold serial dilutions and a 10 mM top concentration. Compound transfer from serially diluted source plates to assay plates containing the cells was accomplished using a pintool (Multimek 96, Beckman equipped with V&P Scientific FP1S50H pins) based liquid handling protocol. This protocol used a slotted pin to transfer 50 nl of compound from a source plate well to an assay plate well containing 50 μl of cells in growth medium. […] Control wells received 50 nl of DMSO treatment for normalization and calculating IC50 values. The treated cells were incubated at 37° C. and 5% CO2 for an additional forty-two hours. Following incubation, the growth medium was removed and 50 μl of BrightGlo luminescence reagent (Promega) was added to each well of the 96-well assay plates. The plates were placed on an orbital shaker for 5 min and then luminescence was quantified on the Victor3 (Perkin Elmer) plate reader. Readings were normalized to DMSO only treated cells, and normalized activities were utilized for IC50 calculations using the dose-response log (inhibitor) vs. response—variable slope (four parameters) nonlinear regression feature available in GraphPad Prism 5.0 or 6.0.

| SMILES | EC50 [1] [nM] | IC50 [2] [nM] |
| --- | --- | --- |
| CN(C)CCOc1cncc(-c2ccc3[nH]nc(-c4nc5c(-c6cccc(F)c6)ccnc5[nH]4)c3c2)c1 [Compound 1883, 2-((5-(3-(7-(3-Fluorophenyl)-3H-imidazo[4,5-b]pyridin-2-yl)-1H-indazol-5-yl)pyridin-3-yl)oxy)-N,N-dimethylethanamine] | 0.095 | – |
| COc1cncc(-c2ccc3[nH]nc(-c4nc5c(-c6cccc(F)c6)ccnc5[nH]4)c3c2)c1 [Compound 1884, 7-(3-Fluorophenyl)-2-(5-(5-methoxypyridin-3-yl)-1H-indazol-3-yl)-3H-imidazo[4,5-b]pyridine] | 9.99 | > 10000 |
| Cc1ccc(-c2ccnc3[nH]c(-c4n[nH]c5ccc(-c6cncc(CN7CCCCC7)c6)cc45)nc23)s1 [Compound 379, 7-(5-Methylthiophen-2-yl)-2-(5-(5-(piperidin-1-ylmethyl)pyridin-3-yl)-1H-indazol-3-yl)-3H-imidazo[4,5-b]pyridine] | 0.405 | 76 |
| CCC(=O)Nc1cncc(-c2ccc3[nH]nc(-c4nc5c(-c6cccs6)ccnc5[nH]4)c3c2)c1 [Compound 313, N-(5-(3-(7-(Thiophen-2-yl)-3H-imidazo[4,5-b]pyridin-2-yl)-1H-indazol-5-yl)pyridin-3-yl)propionamide] | 0.027 | 2 |
| O=C(CC1CCCCC1)Nc1cncc(-c2ccc3[nH]nc(-c4nc5c(-c6cccc(F)c6)ccnc5[nH]4)c3c2)c1 [Compound 1887, 2-Cyclohexyl-N-(5-(3-(7-(3-fluorophenyl)-3H-imidazo[4,5-b]pyridin-2-yl)-1H-indazol-5-yl)pyridin-3-yl)acetamide] | 9.99 | > 10000 |
| O=C(Nc1cncc(-c2ccc3[nH]nc(-c4nc5c(-c6ccsc6)ccnc5[nH]4)c3c2)c1)C1CCCC1 [Compound 281, N-(5-(3-(7-(Thiophen-3-yl)-3H-imidazo[4,5-b]pyridin-2-yl)-1H-indazol-5-yl)pyridin-3-yl)cyclopentanecarboxamide] | 0.359 | 9.8 |
| Fc1ccc(-c2ccnc3[nH]c(-c4n[nH]c5ccc(-c6cncc(CN7CCCC7)c6)cc45)nc23)cc1 [Compound 40, 7-(4-Fluorophenyl)-2-(5-(5-(pyrrolidin-1-ylmethyl)pyridin-3-yl)-1H-indazol-3-yl)-3H-imidazo[4,5-b]pyridine] | 0.009 | 4030 |
| O=C(Nc1cncc(-c2ccc3[nH]nc(-c4nc5c(-c6ccccc6F)ccnc5[nH]4)c3c2)c1)C1CC1 [Compound 71, N-(5-(3-(7-(2-Fluorophenyl)-3H-imidazo[4,5-b]pyridin-2-yl)-1H-indazol-5-yl)pyridin-3-yl)cyclopropanecarboxamide] | 9.99 | 11.1 |
| CC(C)(C)C(=O)Nc1cncc(-c2ccc3[nH]nc(-c4nc5c(-c6ccc(F)cc6)ccnc5[nH]4)c3c2)c1 [Compound 34, N-(5-(3-(7-(4-Fluorophenyl)-3H-imidazo[4,5-b]pyridin-2-yl)-1H-indazol-5-yl)pyridin-3-yl)pivalamide] | 0.334 | 19 |
| CC(C)C(=O)Nc1cncc(-c2ccc3[nH]nc(-c4nc5c(-c6cccc(F)c6)ccnc5[nH]4)c3c2)c1 [Compound 9] | 9.99 | 3 |
| O=C(CC1CCNCC1)Nc1cncc(-c2ccc3[nH]nc(-c4nc5c(-c6cccc(F)c6)ccnc5[nH]4)c3c2)c1 [Compound 1881, N-(5-(3-(7-(3-Fluorophenyl)-3H-imidazo[4,5-b]pyridin-2-yl)-1H-indazol-5-yl)pyridin-3-yl)-2-(piperidin-4-yl)acetamide] | 0.071 | 65 |
| O=C(Nc1cncc(-c2ccc3[nH]nc(-c4nc5c(-c6ccccn6)ccnc5[nH]4)c3c2)c1)C1CCC1 [Compound 150, N-(5-(3-(7-(Pyridin-2-yl)-3H-imidazo[4,5-b]pyridin-2-yl)-1H-indazol-5-yl)pyridin-3-yl)cyclobutanecarboxamide] | 0.133 | 15 |
| Cc1cn(-c2ccnc3[nH]c(-c4n[nH]c5ccc(-c6cncc(NC(=O)C7CCC7)c6)cc45)nc23)cn1 [Compound 202, N-(5-(3-(7-(4-Methyl-1H-imidazol-1-yl)-3H-imidazo[4,5-b]pyridin-2-yl)-1H-indazol-5-yl)pyridin-3-yl)cyclobutanecarboxamide] | 0.018 | 4.7 |
| CC(C)(C)C(=O)Nc1cncc(-c2ccc3[nH]nc(-c4nc5c(-c6cccs6)ccnc5[nH]4)c3c2)c1 [Compound 320, N-(5-(3-(7-(Thiophen-2-yl)-3H-imidazo[4,5-b]pyridin-2-yl)-1H-indazol-5-yl)pyridin-3-yl)pivalamide] | 0.016 | 8.8 |
| CN(C)CCNc1cc(F)cc(-c2ccnc3[nH]c(-c4n[nH]c5ccc(-c6cncc(CNCC7CCCC7)c6)cc45)nc23)c1 [Compound 466, N^1-(3-(2-(5-(5-(((Cyclopentylmethyl)amino)methyl)pyridin-3-yl)-1H-indazol-3-yl)-3H-imidazo[4,5-b]pyridin-7-yl)-5-fluorophenyl)-N^2,N^2-dimethylethane-1,2-diamine] | 1.11 | 442 |
| CCC(=O)Nc1cncc(-c2ccc3[nH]nc(-c4nc5c(-c6cccc(F)c6)ccnc5[nH]4)c3c2)c1 [Compound 1, N-(5-(3-(7-(3-Fluorophenyl)-3H-imidazo[4,5-b]pyridin-2-yl)-1H-indazol-5-yl)pyridin-3-yl)propionamide] | 0.015 | < 1 |
| CN(C)Cc1cncc(-c2ccc3[nH]nc(-c4nc5c(-c6cc(F)cc(CNS(C)(=O)=O)c6)ccnc5[nH]4)c3c2F)c1 [Compound 1833, N-(3-(2-(5-(5-((Dimethylamino)methyl)pyridin-3-yl)-4-fluoro-1H-indazol-3-yl)-3H-imidazo[4,5-b]pyridin-7-yl)-5-fluorobenzyl)methanesulfonamide] | – | 773 |
| CC(C)CC(=O)Nc1cncc(-c2ccc3[nH]nc(-c4nc5c(-c6cc(F)cc(OCCN(C)C)c6)ccnc5[nH]4)c3c2)c1 [Compound 2198, N-(5-(3-(7-(3-(2-(Dimethylamino)ethoxy)-5-fluorophenyl)-3H-imidazo[4,5-b]pyridin-2-yl)-1H-indazol-5-yl)pyridin-3-yl)-3-methylbutanamide] | – | 180 |
| CN(C)Cc1cncc(-c2cc3c(-c4nc5c(-c6ccsc6)ccnc5[nH]4)n[nH]c3cc2F)c1 [Compound 1209, 1-(5-(6-Fluoro-3-(7-(thiophen-3-yl)-3H-imidazo[4,5-b]pyridin-2-yl)-1H-indazol-5-yl)pyridin-3-yl)-N,N-dimethylmethanamine] | – | > 10000 |
